# Data published in ChEMBL document CHEMBL1641430, “Cholinergic and neuroprotective drugs for the treatment of Alzheimer and neuronal vascular diseases. II. Synthesis, biological assessment, and molecular modelling of new tacrine analogues from highly substituted 2-aminopyridine-3-carbonitriles” (Bioorg Med Chem, 2011).
# Calls of active or inactive are those of the source. The calls are words filed in the database; no cut-off is given here.
# How the values were obtained:
# SH-SY5Y [1] = assay: Neuroprotection against rotenone/oligomycin-A-indced human SH-SY5Y cell death assessed as protective effect at 1 uM after 2 hrs by MTT assay; type: functional
# Acetylcholinesterase [2] = target: Acetylcholinesterase (Electrophorus electricus, UniProt O42275)
# Description: Inhibition of Electrophorus electricus AChE by Ellman's method
# Acetylcholinesterase [3] = target: T1, Acetylcholinesterase (Bos taurus, UniProt P23795)
# T1 sequence (P23795 whole entry): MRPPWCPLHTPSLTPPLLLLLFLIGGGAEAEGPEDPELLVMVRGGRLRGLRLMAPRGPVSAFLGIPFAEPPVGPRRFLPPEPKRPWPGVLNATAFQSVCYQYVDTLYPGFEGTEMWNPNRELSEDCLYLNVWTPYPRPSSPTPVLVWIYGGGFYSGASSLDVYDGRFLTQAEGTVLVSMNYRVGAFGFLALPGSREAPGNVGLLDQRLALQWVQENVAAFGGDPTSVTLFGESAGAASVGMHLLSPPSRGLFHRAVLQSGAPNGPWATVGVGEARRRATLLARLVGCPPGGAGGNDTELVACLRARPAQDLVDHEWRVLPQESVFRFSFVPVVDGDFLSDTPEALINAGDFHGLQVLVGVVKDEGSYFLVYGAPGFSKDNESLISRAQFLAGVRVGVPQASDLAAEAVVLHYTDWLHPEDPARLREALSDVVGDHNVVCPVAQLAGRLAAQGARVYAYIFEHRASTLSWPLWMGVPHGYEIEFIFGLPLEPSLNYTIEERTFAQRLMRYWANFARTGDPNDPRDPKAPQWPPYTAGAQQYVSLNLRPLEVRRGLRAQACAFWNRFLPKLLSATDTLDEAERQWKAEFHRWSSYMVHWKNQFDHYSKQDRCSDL
# Description: Inhibition of bovine erythrocytes AChE by Ellman's method
# Cholinesterase = Cholinesterase (Equus caballus, UniProt P81908)
# Description: Inhibition of horse serum BuChE by Ellman's method
# SH-SY5Y [4] = assay: Neuroprotection against okadaic acid-induced human SH-SY5Y cell death assessed as reduction in cell death at 0.1 to 1 uM; type: functional, cell-based
# SH-SY5Y [5] = assay: Neuroprotection against okadaic acid-induced human SH-SY5Y cell death assessed as reduction in LDH release at 0.1 to 1 uM relative to control; type: functional; design: scale not given: the % may be the effect or the level left
# SH-SY5Y [6] = assay: Neuroprotection against okadaic acid-induced human SH-SY5Y cell death assessed as reduction in LDH release at 0.3 uM relative to control; type: functional; design: scale not given: the % may be the effect or the level left
# [7] = target: Acetylcholinesterase (Homo sapiens) (UniProt P22303); assay: Antagonist activity at human nAChR in human SH-SY5Y cells assessed as inhibition of acetylcholine-induced cytosolic Ca2+ signal at 0.3 to 100 uM; type: functional, cell-based
# [8] = target: Acetylcholinesterase (Homo sapiens) (UniProt P22303); assay: Antagonist activity at human nAChR in human SH-SY5Y cells assessed as inhibition of 70 mM K+ induced cytosolic Ca2+ signal at 0.3 to 100 uM; type: functional, cell-based
# Chain of Cholinesterase (P81908 whole entry): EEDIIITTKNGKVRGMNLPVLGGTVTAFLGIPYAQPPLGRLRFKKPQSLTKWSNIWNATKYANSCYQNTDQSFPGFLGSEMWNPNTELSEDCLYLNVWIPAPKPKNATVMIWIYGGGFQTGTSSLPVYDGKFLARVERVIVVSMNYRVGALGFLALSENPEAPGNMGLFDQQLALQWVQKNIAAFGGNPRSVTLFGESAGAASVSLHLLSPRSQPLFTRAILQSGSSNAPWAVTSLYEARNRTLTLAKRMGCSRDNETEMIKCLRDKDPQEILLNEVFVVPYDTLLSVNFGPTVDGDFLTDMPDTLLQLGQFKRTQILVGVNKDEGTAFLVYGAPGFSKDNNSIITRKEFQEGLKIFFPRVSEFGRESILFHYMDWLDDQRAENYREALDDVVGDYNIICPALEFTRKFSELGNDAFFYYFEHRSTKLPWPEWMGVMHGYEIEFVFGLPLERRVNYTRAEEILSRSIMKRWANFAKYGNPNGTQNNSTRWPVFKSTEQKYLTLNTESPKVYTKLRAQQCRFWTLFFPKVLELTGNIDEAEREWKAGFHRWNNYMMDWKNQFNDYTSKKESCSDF
# Chain of Acetylcholinesterase (Electrophorus electricus, UniProt O42275) (O42275 whole entry): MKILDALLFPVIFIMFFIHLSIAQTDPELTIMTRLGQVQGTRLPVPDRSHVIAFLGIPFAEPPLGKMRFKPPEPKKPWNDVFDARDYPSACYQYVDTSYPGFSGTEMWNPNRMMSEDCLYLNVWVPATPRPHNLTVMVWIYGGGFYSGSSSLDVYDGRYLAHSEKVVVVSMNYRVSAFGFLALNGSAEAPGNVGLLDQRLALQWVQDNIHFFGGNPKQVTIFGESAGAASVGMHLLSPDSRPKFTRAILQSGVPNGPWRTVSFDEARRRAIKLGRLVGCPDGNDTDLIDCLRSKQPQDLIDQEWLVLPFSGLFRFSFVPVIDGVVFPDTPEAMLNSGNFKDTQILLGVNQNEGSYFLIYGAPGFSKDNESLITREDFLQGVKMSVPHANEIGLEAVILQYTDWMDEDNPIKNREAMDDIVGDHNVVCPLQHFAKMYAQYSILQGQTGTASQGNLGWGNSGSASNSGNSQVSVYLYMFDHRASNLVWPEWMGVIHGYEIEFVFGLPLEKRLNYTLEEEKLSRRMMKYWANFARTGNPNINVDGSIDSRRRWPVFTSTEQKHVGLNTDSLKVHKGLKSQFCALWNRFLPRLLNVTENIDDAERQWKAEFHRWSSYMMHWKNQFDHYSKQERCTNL
# Chain of Acetylcholinesterase (Homo sapiens) (P22303 whole entry): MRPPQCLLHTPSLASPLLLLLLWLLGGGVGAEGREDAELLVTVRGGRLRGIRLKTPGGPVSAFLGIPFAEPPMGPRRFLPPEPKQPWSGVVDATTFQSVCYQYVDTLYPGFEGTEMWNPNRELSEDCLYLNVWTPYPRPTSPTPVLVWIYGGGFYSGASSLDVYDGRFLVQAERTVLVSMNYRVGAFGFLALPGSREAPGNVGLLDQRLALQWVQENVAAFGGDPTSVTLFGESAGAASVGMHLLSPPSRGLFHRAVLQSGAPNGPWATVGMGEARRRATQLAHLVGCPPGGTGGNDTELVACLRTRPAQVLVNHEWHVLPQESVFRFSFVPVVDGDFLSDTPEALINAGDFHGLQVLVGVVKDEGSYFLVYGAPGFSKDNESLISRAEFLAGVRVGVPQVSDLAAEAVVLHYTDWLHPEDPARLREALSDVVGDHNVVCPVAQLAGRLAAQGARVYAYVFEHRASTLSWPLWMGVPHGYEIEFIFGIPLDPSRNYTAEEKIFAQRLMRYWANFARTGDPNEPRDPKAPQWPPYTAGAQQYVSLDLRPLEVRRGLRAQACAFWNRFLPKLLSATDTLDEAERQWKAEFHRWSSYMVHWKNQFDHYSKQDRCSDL
SMILES,Activity (SH-SY5Y [1]) [%],IC50 (Acetylcholinesterase [2]) [nM],IC50 (Acetylcholinesterase [3]) [nM],IC50 (Cholinesterase) [nM],Activity (SH-SY5Y [4]),Activity (SH-SY5Y [5]) [%],Activity (SH-SY5Y [6]) [%],inhibition [7],inhibition [8]
N#Cc1cc2c(N)c3c(nc2nc1Cl)CCN(Cc1ccccc1)C3,20,350,> 100000,> 100000,–,–,–,–,–
CC(=O)N[C@@H](CS)C(=O)O [ACETYLCYSTEINE],33,–,–,–,–,–,–,–,–
CN(C)c1nc2nc3c(c(N)c2cc1C#N)CCCC3,6,14,100,5200,–,–,–,–,–
N#Cc1cc2c(N)c3c(nc2nc1N1CCCC1)CCCC3,29,43,160,5600,–,–,–,–,–
N#Cc1cc2c(N)c3c(nc2nc1N1CCCCC1)CCCC3,19,25,1000,3600,–,–,–,–,–
N#Cc1cc2c(N)c3c(nc2nc1Cl)CCCC3,4,5000,> 100000,> 30000,–,–,–,–,–
CCOc1nc2nc3c(c(N)c2cc1C#N)CCCC3,29,50,1000,> 30000,–,–,–,–,–
N#Cc1c(Cl)nc2nc3c(c(N)c2c1-c1ccccc1)CCCC3,8,> 30000,> 100000,> 30000,–,–,–,–,–
COc1nc2nc3c(c(N)c2c(-c2ccccc2)c1C#N)CCCC3,12,80,5000,5100,–,–,–,–,–
C#CCNc1nc2nc3c(c(N)c2cc1C#N)CCCC3,20,30,1530,2600,–,–,–,–,–
COc1nc2nc3c(c(N)c2cc1C#N)CN(Cc1ccccc1)CC3,11,350,5000,> 100000,–,–,–,–,–
CN(C)c1nc2nc3c(c(N)c2c(-c2ccccc2)c1C#N)CCCC3,3,90,4400,7500,–,–,–,–,–
COc1nc2nc3c(c(N)c2cc1C#N)CCCC3,23,60,1600,9600,Active,49,65,inactive,inactive
